The values that follow come from ChEMBL document CHEMBL1909046, “DrugMatrix in vitro pharmacology data”.

Each structure is given as a SMILES string. pIC50: −log10 of the molar value.

A word on the pIC50: it is −log10 of the IC50, conventionally taken in molar units.

The target of experiment [1] is T1, Polyunsaturated fatty acid lipoxygenase ALOX15 (Oryctolagus cuniculus, UniProt P12530).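 Also: inhibition of 15-lipoxygenase enzyme activity measured with linoleic acid as the substrate; in other assays of this panel Not Active means under 50% inhibition at 10 µM.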
T1 sequence (P12530 whole entry): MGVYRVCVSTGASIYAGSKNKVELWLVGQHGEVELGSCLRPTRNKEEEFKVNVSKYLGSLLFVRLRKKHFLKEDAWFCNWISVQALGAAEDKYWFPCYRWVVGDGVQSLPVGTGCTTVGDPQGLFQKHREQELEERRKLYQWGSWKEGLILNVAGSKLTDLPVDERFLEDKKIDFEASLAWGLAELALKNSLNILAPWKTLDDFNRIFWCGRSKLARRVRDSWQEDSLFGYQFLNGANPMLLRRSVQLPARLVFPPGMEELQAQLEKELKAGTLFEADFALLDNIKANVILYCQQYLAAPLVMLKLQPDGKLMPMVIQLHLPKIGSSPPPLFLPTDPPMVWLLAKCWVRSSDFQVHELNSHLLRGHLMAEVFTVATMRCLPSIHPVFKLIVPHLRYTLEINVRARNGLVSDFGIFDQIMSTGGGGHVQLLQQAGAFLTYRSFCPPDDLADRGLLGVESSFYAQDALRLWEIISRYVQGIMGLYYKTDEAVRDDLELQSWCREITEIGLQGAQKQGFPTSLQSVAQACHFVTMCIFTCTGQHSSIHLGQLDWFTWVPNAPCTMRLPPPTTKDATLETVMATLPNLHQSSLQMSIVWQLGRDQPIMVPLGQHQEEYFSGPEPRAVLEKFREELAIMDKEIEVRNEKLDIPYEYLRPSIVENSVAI
As to the kind of experiment: biochemical. In kind it is tissue-based, Reticulocytes. Conditions: for IC50: reticulocytes; for pIC50: read-out: IC50.

Experiment [2] can be described thus: DRUGMATRIX: beta-Lactamase enzyme inhibition (substrate: Nitrocefin). Also noted: species or system Bacillus cereus. To be noted: Not Active = under 50% inhibition at 10 µM.
For experiment [3], the target named is T2, 5-hydroxytryptamine receptor 2C (Homo sapiens, UniProt P28335).
T2 sequence (P28335 whole entry): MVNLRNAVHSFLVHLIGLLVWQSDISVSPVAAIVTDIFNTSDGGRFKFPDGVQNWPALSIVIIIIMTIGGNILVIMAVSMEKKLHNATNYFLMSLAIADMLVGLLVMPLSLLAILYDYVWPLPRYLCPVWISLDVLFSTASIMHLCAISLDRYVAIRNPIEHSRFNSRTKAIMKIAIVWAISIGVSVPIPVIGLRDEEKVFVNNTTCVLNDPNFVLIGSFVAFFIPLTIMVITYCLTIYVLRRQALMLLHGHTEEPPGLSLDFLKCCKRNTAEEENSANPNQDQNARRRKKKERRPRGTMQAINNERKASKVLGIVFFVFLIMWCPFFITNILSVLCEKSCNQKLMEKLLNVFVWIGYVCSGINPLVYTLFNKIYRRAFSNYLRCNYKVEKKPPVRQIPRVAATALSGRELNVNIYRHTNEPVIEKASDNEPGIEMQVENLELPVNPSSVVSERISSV
As to the kind of experiment: DRUGMATRIX: Serotonin (5-Hydroxytryptamine) 5-HT2C radioligand binding (ligand: [3H] Mesulergine). In kind it is cell membranes, CHO-K1, Membrane. Conditions: cho-k1; Not Active = under 50% inhibition at 10 µM.

Experiment [4] concerns the target 5-hydroxytryptamine receptor 6 (Homo sapiens, UniProt P50406). In kind it is cell membranes, HeLa, Membrane. Conditions: hela. Also: in other assays of this panel Not Active means under 50% inhibition at 10 µM.
Experiment [5] addresses T3, Vasoactive intestinal polypeptide receptor 1 (Homo sapiens, UniProt P32241).
T3 sequence (P32241 whole entry): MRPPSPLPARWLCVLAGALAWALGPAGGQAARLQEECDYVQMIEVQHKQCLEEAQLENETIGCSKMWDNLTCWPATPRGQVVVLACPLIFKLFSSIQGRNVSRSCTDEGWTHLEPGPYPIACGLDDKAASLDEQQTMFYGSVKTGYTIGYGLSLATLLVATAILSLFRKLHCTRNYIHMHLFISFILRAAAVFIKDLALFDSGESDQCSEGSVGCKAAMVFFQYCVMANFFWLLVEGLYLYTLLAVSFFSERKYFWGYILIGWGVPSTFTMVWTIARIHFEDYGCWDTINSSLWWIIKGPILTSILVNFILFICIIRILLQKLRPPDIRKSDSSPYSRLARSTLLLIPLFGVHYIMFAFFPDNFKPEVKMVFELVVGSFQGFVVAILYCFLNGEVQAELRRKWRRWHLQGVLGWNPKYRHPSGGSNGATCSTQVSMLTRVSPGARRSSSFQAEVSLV
In kind it is cell membranes, Membrane. Conditions: ht-29.

The target in experiment [6] is Platelet-activating factor receptor (Homo sapiens, UniProt P25105). In kind it is tissue-based. Also: in other assays of this panel Not Active means under 50% inhibition at 10 µM.
Chain of Platelet-activating factor receptor (P25105 whole entry): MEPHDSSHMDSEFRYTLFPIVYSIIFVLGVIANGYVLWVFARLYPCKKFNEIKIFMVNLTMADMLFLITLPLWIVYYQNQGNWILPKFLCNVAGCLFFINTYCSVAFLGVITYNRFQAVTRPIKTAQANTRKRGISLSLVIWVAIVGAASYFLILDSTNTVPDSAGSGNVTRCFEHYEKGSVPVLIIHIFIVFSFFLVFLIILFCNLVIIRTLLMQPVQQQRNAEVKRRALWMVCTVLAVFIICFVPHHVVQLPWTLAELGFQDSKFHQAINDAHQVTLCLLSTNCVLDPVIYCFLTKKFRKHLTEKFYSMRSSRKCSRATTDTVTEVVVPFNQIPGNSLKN

Chain of 5-hydroxytryptamine receptor 6 (P50406 whole entry): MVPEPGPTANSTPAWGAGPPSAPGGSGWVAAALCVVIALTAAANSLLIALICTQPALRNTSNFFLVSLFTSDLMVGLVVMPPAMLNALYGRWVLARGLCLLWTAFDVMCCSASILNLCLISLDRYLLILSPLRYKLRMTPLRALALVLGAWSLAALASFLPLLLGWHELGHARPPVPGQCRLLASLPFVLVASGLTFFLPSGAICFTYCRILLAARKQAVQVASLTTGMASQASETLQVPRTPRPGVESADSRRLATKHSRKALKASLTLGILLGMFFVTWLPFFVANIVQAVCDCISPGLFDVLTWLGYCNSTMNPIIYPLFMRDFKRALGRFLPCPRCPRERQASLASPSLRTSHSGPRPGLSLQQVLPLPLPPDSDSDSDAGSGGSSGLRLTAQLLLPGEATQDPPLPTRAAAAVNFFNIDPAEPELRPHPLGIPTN

Regarding `O=C1CC[C@H](N2C(=O)c3ccccc3C2=O)C(=O)N1`, the IC50 result in experiment [1], in experiment [2], in experiment [3], in experiment [4], in experiment [5] and in experiment [6] was “Not Active” each time. In addition, the Ki entry in experiment [2] is given as “Not Active”.
`CC(=O)Nc1ccc(O)cc1` [ACETAMINOPHEN]: in experiment [1], the pIC50 is 4.55. Further, the IC50 entry in experiment [2], in experiment [3], in experiment [4], in experiment [5] and in experiment [6] was “Not Active” throughout. The Ki result in experiment [2] is listed as “Not Active”.
Consider `CCOC(=O)[C@H](CCc1ccccc1)N[C@H]1CCc2ccccc2N(CC(=O)O)C1=O` [BENAZEPRIL], for which the IC50 result in experiment [1], in experiment [2], in experiment [3], in experiment [4], in experiment [5] and in experiment [6] was “Not Active” each time. Moreover, the Ki entry in experiment [2] is “Not Active”.
`O=C1CC2(CCCC2)CC(=O)N1CCCCN1CCN(c2ncccn2)CC1` [BUSPIRONE]: the IC50 entry in experiment [1], in experiment [2], in experiment [3], in experiment [4], in experiment [5] and in experiment [6] was “Not Active” each time. The Ki entry in experiment [2] is recorded as “Not Active”.
For `ClC(Cl)Cl` [CHLOROFORM], the IC50 entry in experiment [1], in experiment [2], in experiment [3], in experiment [4], in experiment [5] and in experiment [6] was “Not Active” in each case. Moreover, the Ki result in experiment [2] is “Not Active”.
Consider `C[C@@H]1C[C@@H]([C@H](O)CC2CC(=O)NC(=O)C2)C(=O)[C@@H](C)C1` [CYCLOHEXIMIDE], for which the IC50 result in experiment [1], in experiment [2], in experiment [3], in experiment [4], in experiment [5] and in experiment [6] was “Not Active” in each case. In addition, in experiment [2], the Ki entry is on record as “Not Active”.
With `CC(=O)Nc1c(I)c(NC(C)=O)c(I)c(C(=O)O)c1I` [DIATRIZOIC ACID], the IC50 result in experiment [1], in experiment [2], in experiment [3], in experiment [4], in experiment [5] and in experiment [6] was “Not Active” each time. In experiment [2], the Ki result is “Not Active”.
`CCN1CC(CCN2CCOCC2)C(c2ccccc2)(c2ccccc2)C1=O` (stereo not given) [DOXAPRAM]: the IC50 entry in experiment [1], in experiment [2], in experiment [3], in experiment [4], in experiment [5] and in experiment [6] was “Not Active” throughout. Besides, the Ki result in experiment [2] was “Not Active”.
With `Cn1c(=O)c2c(ncn2CC2OCCO2)n(C)c1=O` [DOXOFYLLINE], the IC50 result in experiment [1], in experiment [2], in experiment [3], in experiment [4], in experiment [5] and in experiment [6] was “Not Active” each time. Also, in experiment [2], the Ki result was “Not Active”.
`C[C@]12CC[C@@H]3c4ccc(OC(=O)c5ccccc5)cc4CC[C@H]3[C@@H]1CC[C@@H]2O` [ESTRADIOL BENZOATE]: the IC50 result in experiment [1], in experiment [2], in experiment [3], in experiment [4], in experiment [5] and in experiment [6] was “Not Active” in each case. Also, the Ki result in experiment [2] is listed as “Not Active”.
As for `C[C@]12CC[C@@H]3c4ccc(O)cc4CC[C@H]3[C@@H]1CC[C@@H]2O` [ESTRADIOL], the negative logarithm of the IC50 (pIC50) in experiment [1] is 4.95. The IC50 entry in experiment [2], in experiment [3], in experiment [4], in experiment [5] and in experiment [6] was “Not Active” each time. Also, in experiment [2], the Ki result is given as “Not Active”.
`CC[C@@H](CO)NCCN[C@@H](CC)CO` [ETHAMBUTOL]: the IC50 result in experiment [1], in experiment [2], in experiment [3], in experiment [4], in experiment [5] and in experiment [6] was “Not Active” in each case. Besides, the Ki entry in experiment [2] is recorded as “Not Active”.
As to `NC(=O)NO` [HYDROXYUREA], the IC50 entry in experiment [1], in experiment [2], in experiment [3], in experiment [4], in experiment [5] and in experiment [6] was “Not Active” throughout. Moreover, the Ki result in experiment [2] was “Not Active”.
Take `Nc1ccn([C@@H]2CS[C@H](CO)O2)c(=O)n1` [LAMIVUDINE]: the IC50 result in experiment [1], in experiment [2], in experiment [3], in experiment [4], in experiment [5] and in experiment [6] was “Not Active” throughout. In experiment [2], the Ki result is recorded as “Not Active”.
In the case of `C#C[C@]1(O)CC[C@H]2[C@@H]3CCc4cc(OC)ccc4[C@H]3CC[C@@]21C` [MESTRANOL], the IC50 entry in experiment [1], in experiment [2], in experiment [3], in experiment [4], in experiment [5] and in experiment [6] was “Not Active” in each case. Besides, the Ki entry in experiment [2] is “Not Active”.
Consider `COc1ccc2cc([C@H](C)C(=O)O)ccc2c1` [NAPROXEN], for which the IC50 result in experiment [1], in experiment [2], in experiment [3], in experiment [4], in experiment [5] and in experiment [6] was “Not Active” each time. Further, the Ki result in experiment [2] was “Not Active”.
For `C#C[C@]1(OC(C)=O)CC[C@H]2[C@@H]3CCC4=CC(=O)CC[C@@H]4[C@H]3CC[C@@]21C` [NORETHINDRONE ACETATE], the IC50 entry in experiment [1], in experiment [2], in experiment [3], in experiment [4], in experiment [5] and in experiment [6] was “Not Active” in each case. In addition, the Ki entry in experiment [2] is on record as “Not Active”.
On to `O=C(C1CCCCC1)N1CC(=O)N2CCc3ccccc3C2C1` (stereo not given) [PRAZIQUANTEL], for which the IC50 result in experiment [1], in experiment [2], in experiment [3], in experiment [4], in experiment [5] and in experiment [6] was “Not Active” each time. Further, in experiment [2], the Ki entry is on record as “Not Active”.
For `CCN(CC)CCOC(=O)c1ccc(N)cc1` [PROCAINE], the IC50 entry in experiment [1], in experiment [2], in experiment [3], in experiment [4], in experiment [5] and in experiment [6] was “Not Active” throughout. Also, the Ki result in experiment [2] is “Not Active”.
As to `CCCN(CCC)C(=O)C(CCC(=O)O)NC(=O)c1ccccc1` (stereo not given) [PROGLUMIDE], the IC50 result in experiment [1], in experiment [2], in experiment [3], in experiment [4], in experiment [5] and in experiment [6] was “Not Active” throughout. Further, the Ki entry in experiment [2] is reported as “Not Active”.
